For data set [1], the target named is Peroxisome proliferator-activated receptor delta (Homo sapiens) (UniProt Q03181). The experiment in a line: Agonist activity at human PPARdelta by FRET assay.
Data set [2] in a line: Cmax in Balb/c mouse at 10 mg/kg, po qd. The conditions noted are these: in vivo.
For data set [3], the system named is Mus musculus. The experiment in a line: Upregulation of UCP3 expression in C57BL/6 mouse at 10 mg/kg, po qd relative to control. Type of data set: functional.
Data set [4] can be described thus: Half life in Balb/c mouse at 10 mg/kg, po qd. The conditions noted are these: in vivo.
Data set [5] in a line: Oral bioavailability in Balb/c mouse at 10 mg/kg daily. As to conditions: in vivo.
Data set [6] concerns the target T1, Peroxisome proliferator-activated receptor delta (Homo sapiens, UniProt Q03181).
T1 sequence (Q03181 whole entry): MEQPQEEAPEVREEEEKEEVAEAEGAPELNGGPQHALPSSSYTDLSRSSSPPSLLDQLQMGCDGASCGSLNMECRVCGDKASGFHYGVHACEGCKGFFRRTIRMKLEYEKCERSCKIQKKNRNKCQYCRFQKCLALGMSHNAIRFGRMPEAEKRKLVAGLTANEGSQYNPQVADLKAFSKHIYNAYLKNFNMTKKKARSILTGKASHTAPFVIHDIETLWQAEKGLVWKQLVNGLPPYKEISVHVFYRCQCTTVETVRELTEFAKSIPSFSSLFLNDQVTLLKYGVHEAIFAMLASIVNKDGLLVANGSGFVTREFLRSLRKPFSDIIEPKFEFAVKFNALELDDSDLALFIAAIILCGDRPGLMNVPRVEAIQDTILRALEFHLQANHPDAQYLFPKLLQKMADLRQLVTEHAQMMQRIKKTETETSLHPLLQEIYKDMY

Data set [7] deals with T1, Peroxisome proliferator-activated receptor delta. The source holds these as a separate data set.
Data set [8] relates to Mus musculus. The experiment in a line: Upregulation of PDK4 expression in C57BL/6 mouse at 10 mg/kg, po qd relative to control. Type of data set: functional.
A short description of data set [9]: AUC ((0 to 24 hrs)) in Balb/c mouse at 10 mg/kg, po qd. As to conditions: plasma.
Data set [10] concerns the target T2, Peroxisome proliferator-activated receptor alpha (Homo sapiens, UniProt Q07869).
T2 sequence (Q07869 whole entry): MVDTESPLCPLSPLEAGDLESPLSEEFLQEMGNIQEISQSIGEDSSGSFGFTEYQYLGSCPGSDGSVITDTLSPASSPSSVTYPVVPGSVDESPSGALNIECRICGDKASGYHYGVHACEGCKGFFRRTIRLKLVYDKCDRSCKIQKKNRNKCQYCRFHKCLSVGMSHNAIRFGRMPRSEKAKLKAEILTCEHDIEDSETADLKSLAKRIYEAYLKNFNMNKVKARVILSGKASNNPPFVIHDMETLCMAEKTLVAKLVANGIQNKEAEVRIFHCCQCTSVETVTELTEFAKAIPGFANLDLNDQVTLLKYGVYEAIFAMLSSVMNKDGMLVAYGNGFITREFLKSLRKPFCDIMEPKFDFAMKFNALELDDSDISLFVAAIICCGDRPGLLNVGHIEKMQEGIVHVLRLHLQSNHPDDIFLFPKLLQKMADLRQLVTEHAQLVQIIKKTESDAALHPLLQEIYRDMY
Put plainly: Agonist activity at human PPARalpha ligand binding domain expressed in human 293T cells co-transfected with Gal4-DBD by luciferase transactivation assay. The data set is classed as cell-based. The conditions noted are these: read-out: EC50.

The target of data set [11] is T3, Peroxisome proliferator-activated receptor gamma (Homo sapiens, UniProt P37231).
T3 sequence (P37231 whole entry): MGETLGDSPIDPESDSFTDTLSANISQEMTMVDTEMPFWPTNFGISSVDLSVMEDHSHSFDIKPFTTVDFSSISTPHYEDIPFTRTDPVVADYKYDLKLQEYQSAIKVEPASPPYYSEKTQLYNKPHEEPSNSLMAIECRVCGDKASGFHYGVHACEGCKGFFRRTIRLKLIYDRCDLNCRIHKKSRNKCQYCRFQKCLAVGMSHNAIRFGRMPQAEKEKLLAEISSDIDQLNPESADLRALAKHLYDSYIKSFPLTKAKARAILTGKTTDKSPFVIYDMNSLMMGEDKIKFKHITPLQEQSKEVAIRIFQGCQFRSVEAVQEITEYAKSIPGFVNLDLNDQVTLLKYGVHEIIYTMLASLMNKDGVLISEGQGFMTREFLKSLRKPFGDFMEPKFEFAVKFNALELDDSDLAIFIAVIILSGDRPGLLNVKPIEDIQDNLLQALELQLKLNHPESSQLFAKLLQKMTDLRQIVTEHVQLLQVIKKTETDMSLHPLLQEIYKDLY
Type of data set: cell-based, 293T. The conditions noted are these: read-out: EC50.

Data set [12] addresses T4, Peroxisome proliferator-activated receptor alpha (Homo sapiens) (UniProt Q07869).
T4 sequence (whole entry): T2 sequence (Q07869 whole entry)
The experiment in a line: Agonist activity at human PPARalpha ligand binding domain expressed in human 293T cells co-transfected with Gal4-DBD by luciferase transactivation assay relative to KRP297. The data set is classed as cell-based.

SMILES strings stand for the structures.

24 molecules from ChEMBL document CHEMBL1153748 (J Med Chem, 2010) can be followed below.

In general, EC50 refers to the concentration at which the effect is half-maximal. By Cmax is commonly meant the maximum level reached in the sampled fluid or tissue. What is called half-life is how long it takes for the measured level to halve. A lower half-life goes with rapid decline. What is called bioavailability is dose-corrected exposure relative to a reference, in per cent. Low values mean little systemic uptake, high ones much systemic uptake. One may read the AUC as concentration integrated over time. Consider `Cc1cc(OCc2nc(-c3ccc(OC(C)C)cc3)c(-c3cccc(OC(F)(F)F)c3)s2)ccc1OCC(=O)O`, for which the EC50 in data set [1] was 0.046 µM; in data set [6], 0.009 µM; in [7], 0.016 µM. The molecule further yielded a Cmax in data set [2] of 2.4 µM. Besides, the “fold change (FC)” value was determined as 1.9 in [3] and 1.7 in data set [8]. The half-life in [4] was 3.2 h. Moreover, the bioavailability in [5] is 49%. This molecule displayed an AUC at 24 h in data set [9] of 20.3 µM·h.

Take `Cc1cc(OCc2nc(-c3ccc(OC(C)C)cc3)c(-c3ccc(C(F)(F)F)cc3)s2)ccc1OCC(=O)O`: the EC50 in data set [1] amounted to 0.02 µM; in [6] it was 0.011 µM; in data set [7] it was 0.016 µM. This molecule also gave a Cmax in [2] of 2.8 µM. Besides, the “fold change (FC)” value in [3] was found to be 1.7; in data set [8], 1.1. Further, the half-life in [4] is 3.9 h. For the same molecule, in data set [5], the bioavailability was 70%. The molecule also displayed an AUC at 24 h in data set [9] of 37.3 µM·h.

Take `COc1ccc(-c2csc(COc3ccc(OCC(=O)O)c(C)c3)n2)cc1`: the figures for the EC50 in [10], in data set [6] and in data set [11] were 4.08 µM, 4.06 µM and over 10 µM, respectively. This molecule also registered an Efficacy in data set [12] of 5%.

Regarding `Cc1cc(OCc2nc(-c3ccc(OC(C)C)cc3)c(-c3ccc(-c4ccccc4)cc3)s2)ccc1OCC(=O)O`, the EC50 worked out at 0.029 µM in data set [1], 0.009 µM in [6] and 0.01 µM in data set [7]. Further, the “fold change (FC)” value was found to be 2.4 in data set [3] and 1.5 in data set [8].

`CCOC(Cc1ccc(OCc2nc(-c3ccc(OC)cc3)c(-c3ccc(C(F)(F)F)cc3)s2)cc1)C(=O)O` (configuration not stated): the figures for the EC50 in data set [10], in [6] and in data set [11] were 1.09 µM, 1.87 µM and 1.31 µM, respectively. The same molecule gave an Efficacy in [12] of 37%.

Consider `Cc1cc(OCc2nc(-c3ccc(C(=O)N(C)C(C)C)cc3)c(-c3ccc(OC(F)(F)F)cc3)o2)ccc1OCC(=O)O`, for which the EC50 was found to be 0.7 µM in [10], 0.001 µM in [6] and 0.6 µM in [11]. In addition, the Efficacy in [12] was 49%.

For `Cc1cc(OCc2nc(-c3cccnc3)c(-c3ccc(-c4ccccc4)cc3)o2)ccc1OCC(=O)O`, the values for the EC50 in data set [1], in data set [6] and in [7] were 0.03 µM, 0.008 µM and 0.006 µM, respectively. Besides, the concentration in data set [2] peaked (Cmax) at 0.4 µM. Also, in data set [4], the half-life is 4 h. In addition, the bioavailability in data set [5] stood at 10%. The AUC at 24 h in data set [9] amounted to 0.814 µM·h.

Take `COc1ccc(-c2nc(SCCCCOc3ccc(OCC(=O)O)c(C)c3)sc2-c2ccc(OC)cc2)cc1`: the EC50 is 2.37 µM in data set [10], over 10 µM in [6] and 6.36 µM in [11]. The molecule also returned an Efficacy in data set [12] of 89%.

In the case of `COc1ccc(-c2nc(SCCOc3ccc(OCC(=O)O)c(C)c3)sc2-c2ccc(OC)cc2)cc1`, the EC50 in [10] was 5.35 µM; in data set [6], over 10 µM; in data set [11] it was 5.66 µM. Further, in [12], the Efficacy worked out at 64%.

On to `Cc1cc(OCc2nc(-c3cnc(N4CCOCC4)nc3)c(-c3ccc(OC(F)(F)F)cc3)s2)ccc1OCC(=O)O`, for which the EC50 in data set [10] is 1.99 µM; in data set [6], 0.003 µM; in data set [11], over 10 µM. In data set [12], this molecule returned an Efficacy of 38%.

Turning to `Cc1cc(OCc2nc(-c3ccc(C(=O)N(C)C(C)C)cc3)c(-c3ccc(OC(F)(F)F)cc3)s2)ccc1OCC(=O)O`, the EC50 in [10] worked out at 0.69 µM; in [6] it was 0.002 µM; in data set [11], 1.2 µM. This molecule also had an Efficacy in data set [12] of 65%.

The molecule `Cc1cc(SCc2sc(-c3ccc(C(F)(F)F)cc3)nc2C)ccc1OCC(=O)O` [GW501516] came in with a Cmax in [2] of 3.9 µM. Moreover, the “fold change (FC)” value in data set [3] is on record as 3.2; in [8], 2.5. Moreover, the half-life in [4] is 4.4 h. This molecule yielded an AUC at 24 h in [9] of 29.8 µM·h.

`Cc1cc(OCc2nc(-c3ccc(C(=O)N4CCCCC4)cc3)c(-c3ccc(OC(F)(F)F)cc3)s2)ccc1OCC(=O)O`: the EC50 amounted to 1.59 µM in [10], 0.006 µM in data set [6] and 1.56 µM in data set [11]. In [12], this molecule gave an Efficacy of 55%.

In the case of `Cc1cc(OCc2nc(-c3ccc(C(=O)N4CCCCC4)cc3)c(-c3ccc(OC(F)(F)F)cc3)o2)ccc1OCC(=O)O`, the EC50 was 1.15 µM in data set [10], 0.018 µM in data set [6] and over 10 µM in [11]. In data set [12], this molecule yielded an Efficacy of 43%.

For `Cc1cc(OCc2nc(-c3ccc(N4CCCCC4)cc3)c(-c3ccc(OC(F)(F)F)cc3)s2)ccc1OCC(=O)O`, the EC50 in data set [10] was 5.2 µM; in data set [6], 0.052 µM; in data set [11] it was over 10 µM. In data set [12], this molecule showed an Efficacy of 9%.

On to `CCCc1ccc(-c2sc(COc3ccc(OCC(=O)O)c(C)c3)nc2-c2ccc(OC(C)C)cc2)cc1`, for which the EC50 in data set [1] is 0.017 µM; in data set [6], 0.011 µM; in data set [7], 0.013 µM.

For the molecule `Cc1cc(OCc2nc(-c3ccc(-c4ccccc4)cc3)cs2)ccc1OCC(=O)O`, the EC50 is 0.48 µM in data set [10], 0.34 µM in data set [6] and over 10 µM in [11]. Besides, the Efficacy in [12] worked out at 42%.

Regarding `Cc1cc(OCc2nc(-c3cnc(N4CCOCC4)nc3)c(-c3ccc(OC(F)(F)F)cc3)o2)ccc1OCC(=O)O`, the concentration for a half-maximal effect (EC50) was found to be 0.41 µM in data set [10], 0.001 µM in [6] and 1.03 µM in data set [11]. In data set [12], this molecule returned an Efficacy of 69%.

With `COc1ccc(-c2nc(SCCCOc3ccc(OCC(=O)O)c(C)c3)sc2-c2ccc(OC)cc2)cc1`, the EC50 is 5.25 µM in data set [10], over 10 µM in data set [6] and 6.89 µM in data set [11]. The molecule also returned an Efficacy in data set [12] of 62%.

Regarding `Cc1cc(OCc2nc(-c3ccc(N4CCOCC4)nc3)c(-c3ccc(OC(F)(F)F)cc3)o2)ccc1OCC(=O)O`, the EC50 was found to be 0.005 µM in [1], 1.2 µM in [10], 0.002 µM in data set [6] and 2.49 µM in data set [11]. In data set [2], the peak level (Cmax) was 0.7 µM. The half-life in data set [4] is 3.8 h. In addition, the bioavailability in data set [5] came out at 18%. The molecule further displayed an AUC at 24 h in [9] of 1.95 µM·h. The Efficacy in [12] came to 46%.

In the case of `Cc1cc(OCc2nc(-c3cnc(OC(C)C)nc3)c(-c3ccc(OC(F)(F)F)cc3)o2)ccc1OCC(=O)O`, the EC50 in data set [10] is 0.16 µM; in data set [6], 0.001 µM; in [11], 0.98 µM. In addition, the Efficacy in [12] turned out to be 82%.

Regarding `COc1ncc(-c2nc(COc3ccc(OCC(=O)O)c(C)c3)oc2-c2ccc(OC(F)(F)F)cc2)cn1`, the results for the EC50 in [10], in [6] and in data set [11] were over 10 µM, 0.014 µM and over 10 µM, respectively.

Consider `COc1ccc(-c2nc(COc3ccccc3OCC(=O)O)sc2-c2ccc(C(F)(F)F)cc2)cc1`, for which the EC50 in data set [10], in [6] and in data set [11] was over 10 µM each time.

For `COc1ccc(-c2nc(COc3ccc(OCC(=O)O)c(C)c3)sc2-c2cc3ccccc3o2)cc1`, the EC50 in data set [10] is over 10 µM; in data set [6] it was 0.05 µM; in data set [11], over 10 µM.
